Values after ≈ are worked out from the molar mass of the structure shown. Read-outs that look alike come from different tables or passages of the source.
Tests used:
C. albicans 5 strains = tested on: T1, C. albicans 5 strains; test: microbe, parasite or virus in culture; design: species or system clinical Candida isolates; broth microdilution antifungal MIC, visual growth inhibition, CLSI; conditions: Candida albicans, 24 h, read-out: Tested Fungi (MIC Values μg/mL) / C. albicans 5 strains
T1 construct: 5 clinical isolates
Procedure: (§1) The in vitro antifungal activities were determined by the broth microdilution method with sabouraud dextrose broth (BBL Microbiology Systems, Cockeysville, MD, USA), as recommended by the by the CLSI [43]. Ninety-six-well polystyrene microtitre plates containing serial dilutions of each compound were inoculated with each microorganism to yield the appropriate density (1–5 × 10^3 cells/mL) in a 100-μL final volume. Each plate included (i) fungi without the addition of the compound, (ii) just the medium, and (iii) just the compound. Topical and systemic antifungal reference drugs, clotrimazole and fluconazole, were inserted in the experiment. The plates were incubated for 24 h at 35 °C. […] Three independent experiments were performed in triplicate. The antimicrobial activity of these thiazolidinones was evaluated versus 24 clinical Gram-positive (S. aureus and S. epidermidis) and Gram-negative (E. coli and Enterobacter spp.) microorganisms. The antifungal activity of these derivatives was then tested versus 16 clinical fungal isolates belonging to the most relevant Candida spp. (C. albicans, C. tropicalis, C. parapsilosis, C. sakè, and C. glabrata). Prior to testing, each isolate was cultured on a selective medium to ensure purity and optimal growth, as previously reported. The isolates were routinely identified by the morphological aspects of colonies and by biochemical identification. The used clinical isolates were collected from specimens of patients at the ‘Azienda Policlinico Umberto I’ (Sapienza University of Rome) and were obtained from hematology/oncology and surgery departments, which also included an intensive care unit. In particular, the samples were isolated from the upper and lower respiratory tract, blood, and indwelling venous catheters; the isolates were identified by conventional methodologies. Participating subjects gave their written informed consent for this study.

CgNce103 = molecular target: T2, CgNce103 (Nakaseomyces glabratus, UniProt Q6FTL6); test: stopped-flow CO2 hydrase assay; assay type: biochemical
T2 construct: gene NCE103; recombinant, obtained in-house as previously reported; beta-class zinc enzyme
T2 sequence (Q6FTL6 1-219): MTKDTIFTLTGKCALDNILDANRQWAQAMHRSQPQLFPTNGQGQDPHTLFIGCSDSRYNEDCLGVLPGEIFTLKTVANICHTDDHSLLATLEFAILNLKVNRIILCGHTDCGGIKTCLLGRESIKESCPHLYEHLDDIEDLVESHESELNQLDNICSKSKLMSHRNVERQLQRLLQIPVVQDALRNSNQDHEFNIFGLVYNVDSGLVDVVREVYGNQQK

hCA I = molecular target: T3, hCA I (Homo sapiens, UniProt P00915); test: stopped-flow CO2 hydrase assay; assay type: biochemical
T3 construct: gene CA1; recombinant, obtained in-house as previously reported
Source text: stopped-flow CO2 hydrase assay on hCA I

C. tropicalis 3 strains = tested on: T4, C. tropicalis 3 strains; test: microbe, parasite or virus in culture; design: species or system clinical Candida isolates; CLSI broth microdilution MIC, Sabouraud dextrose broth, 35 °C, visual complete growth inhibition; conditions: Candida tropicalis, 24 h, read-out: Tested Fungi (MIC Values μg/mL) / C. tropicalis 3 strains
T4 construct: 3 clinical isolates
Procedure: as §1

[1] = tested on: T5, Candida sake C. sakè 3 strains; test: microbe, parasite or virus in culture; design: species or system clinical Candida isolates; CLSI broth microdilution MIC, Sabouraud dextrose broth, 35 °C, visual complete growth inhibition; conditions: Fermentozyma sake, 24 h; read-out: Tested Fungi (MIC Values μg/mL) / C. sakè 3 strains
T5 construct: 3 clinical isolates
Procedure: as §1

C. glabrata 3 strains [2] = tested on: T6, C. glabrata 3 strains; test: microbe, parasite or virus in culture; design: species or system clinical Candida isolates; CLSI broth microdilution MIC, Sabouraud dextrose broth, 35 °C, visual complete growth inhibition; conditions: Nakaseomyces glabratus, 24 h, read-out: Tested Fungi (MIC Values μg/mL) / C. glabrata 3 strains
T6 construct: 3 clinical isolates
Procedure: as §1

[3] = tested on: T7, C. parapsilosis 2 strains; test: microbe, parasite or virus in culture; design: species or system clinical Candida isolates; CLSI broth microdilution MIC, Sabouraud dextrose broth, 35 °C, visual complete growth inhibition; conditions: Lodderomyces parapsilosis, 24 h, read-out: Tested Fungi (MIC Values μg/mL) / C. parapsilosis 2 strains
T7 construct: 2 clinical isolates
Procedure: as §1

[4] = stopped-flow CO2 hydrase assay; assay type: biochemical, Homo sapiens; conditions: read-out: hCA I
hCA II = molecular target: T8, hCA II (Homo sapiens, UniProt P00918); test: stopped-flow CO2 hydrase assay; assay type: biochemical
T8 construct: gene CA2; recombinant, obtained in-house as previously reported
Source text: stopped-flow CO2 hydrase assay on hCA II

[5] = tested on: T5, Candida sake C. sakè 3 strains; test: microbe, parasite or virus in culture; design: species or system clinical Candida isolates; broth microdilution antifungal MIC, visual growth inhibition, CLSI; conditions: Fermentozyma sake, 24 h; read-out: Tested Fungi (MIC Values μg/mL) / C. sakè 3 strains
Procedure: as §1

C. glabrata 3 strains [6] = tested on: T6, C. glabrata 3 strains; test: microbe, parasite or virus in culture; design: species or system clinical Candida isolates; broth microdilution antifungal MIC, visual growth inhibition, CLSI; conditions: Nakaseomyces glabratus, 24 h, read-out: Tested Fungi (MIC Values μg/mL) / C. glabrata 3 strains
Procedure: as §1

T3 sequence (P00915 2-261): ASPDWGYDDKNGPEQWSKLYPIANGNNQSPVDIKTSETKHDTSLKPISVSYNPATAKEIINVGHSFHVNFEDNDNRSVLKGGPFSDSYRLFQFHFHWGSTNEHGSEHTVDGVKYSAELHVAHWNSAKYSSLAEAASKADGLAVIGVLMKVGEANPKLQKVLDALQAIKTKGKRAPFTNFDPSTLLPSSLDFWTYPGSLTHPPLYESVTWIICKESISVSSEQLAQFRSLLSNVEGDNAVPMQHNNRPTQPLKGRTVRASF

SMILES: O=C(N/N=C1\SCC(=O)N1c1ccccc1F)C(O)c1ccccc1 (stereo not drawn) [3a]
- MIC (C. albicans 5 strains): 4 to 8 µg/mL (≈ 11.1 to 22.3 µM)
- Ki (CgNce103): 0.27 µM
- Ki (hCA I): > 100 µM
- MIC (C. tropicalis 3 strains): 32 µg/mL (≈ 89 µM)
- MIC [1]: 16 µg/mL (≈ 44.5 µM)
- MIC (C. glabrata 3 strains [2]): 16 µg/mL (≈ 44.5 µM)
- MIC [3]: 32 µg/mL (≈ 89 µM)
- Ki [4]: > 100 µM

SMILES: O=C(N/N=C1\SCC(=O)N1c1cccc(F)c1)C(O)c1ccccc1 (stereo not drawn) [3b]
- MIC (C. albicans 5 strains): 4 to 8 µg/mL (≈ 11.1 to 22.3 µM)
- Ki (CgNce103): 0.48 µM
- Ki (hCA I): > 100 µM
- MIC (C. tropicalis 3 strains): 32 µg/mL (≈ 89 µM)
- MIC [1]: 16 µg/mL (≈ 44.5 µM)
- MIC (C. glabrata 3 strains [2]): 16 µg/mL (≈ 44.5 µM)
- MIC [3]: 32 µg/mL (≈ 89 µM)
- Ki [4]: > 100 µM

SMILES: O=C(N/N=C1\SCC(=O)N1c1ccc(F)cc1)C(O)c1ccccc1 (stereo not drawn) [3c]
- MIC (C. albicans 5 strains): 4 to 8 µg/mL (≈ 11.1 to 22.3 µM)
- Ki (CgNce103): 0.38 µM
- Ki (hCA II): 76.7 µM
- Ki (hCA I): > 100 µM
- MIC (C. tropicalis 3 strains): 32 µg/mL (≈ 89 µM)
- MIC [1]: 16 µg/mL (≈ 44.5 µM)
- MIC (C. glabrata 3 strains [2]): 16 µg/mL (≈ 44.5 µM)
- MIC [3]: 32 µg/mL (≈ 89 µM)

SMILES: O=C(N/N=C1\SCC(=O)N1c1ccccc1Cl)C(O)c1ccccc1 (stereo not drawn) [3d]
- MIC (C. albicans 5 strains): 8 to 32 µg/mL (≈ 21.3 to 85.1 µM)
- MIC [5]: 8 to 32 µg/mL (≈ 21.3 to 85.1 µM)
- MIC (C. glabrata 3 strains [6]): 8 to 32 µg/mL (≈ 21.3 to 85.1 µM)
- Ki (CgNce103): 0.32 µM
- Ki (hCA I): > 100 µM
- MIC (C. tropicalis 3 strains): 32 µg/mL (≈ 85.1 µM)
- MIC [3]: 32 µg/mL (≈ 85.1 µM)
- Ki [4]: > 100 µM

SMILES: O=C(N/N=C1\SCC(=O)N1c1cccc(Cl)c1)C(O)c1ccccc1 (stereo not drawn) [3e]
- MIC (C. albicans 5 strains): 8 to 32 µg/mL (≈ 21.3 to 85.1 µM)
- MIC [5]: 8 to 32 µg/mL (≈ 21.3 to 85.1 µM)
- MIC (C. glabrata 3 strains [6]): 8 to 32 µg/mL (≈ 21.3 to 85.1 µM)
- Ki (CgNce103): 0.43 µM
- Ki (hCA II): 50.3 µM
- Ki (hCA I): > 100 µM
- MIC (C. tropicalis 3 strains): 32 µg/mL (≈ 85.1 µM)
- MIC [3]: 32 µg/mL (≈ 85.1 µM)

SMILES: O=C(N/N=C1\SCC(=O)N1c1ccc(Cl)cc1)C(O)c1ccccc1 (stereo not drawn) [3f]
- MIC (C. albicans 5 strains): 4 to 8 µg/mL (≈ 10.6 to 21.3 µM)
- MIC (C. glabrata 3 strains [6]): 4 to 8 µg/mL (≈ 10.6 to 21.3 µM)
- Ki (CgNce103): 0.51 µM
- Ki (hCA II): 62.9 µM
- Ki (hCA I): > 100 µM
- MIC (C. tropicalis 3 strains): 32 µg/mL (≈ 85.1 µM)
- MIC [1]: 16 µg/mL (≈ 42.6 µM)
- MIC [3]: 16 µg/mL (≈ 42.6 µM)
